In patent US10894788B2, “Inhibitors of cyclin-dependent kinases” (Kinnate Biopharma Inc., priority 2018, dated 2021):

Target: CDK12 (Homo sapiens (Human), UniProt Q9NYV4)
Test: Radiometric protein kinase assay (33PanQinase Activity Assay), Assay Condition B (thiol-free conditions)
Format: biochemical
Settings: thiol-free conditions (1 mM TCEP, glutathione removed)
Experimental: Example 2—Assay Condition B (Thiol-Free Conditions)
The IC50 profile of compounds was determined using one protein kinase in a customized, thiol free assay. […] Prior to testing, the 1×10^−03 M stock solutions in column 2 of the master plates were subjected to a serial, semi-logarithmic dilution using 100% DMSO as a solvent. […] Column 1 and 7 were filled with 100% DMSO as controls. Subsequently, 2×10 microliter from each well of the serial diluted copy plates were aliquoted with a 96 channel pipettor into two identical sets of “compound dilution plates”. All plates were barcoded for automated identification and tracking purposes. […] All compounds were stored as powder until being solubilized in DMSO. Solubilized compounds were stored as 1×10^−02 M/100% DMSO stock solutions. Prior to the assay process, 90 microliters of H2O were added to each well of a set of compound dilution plates. To minimize potential precipitation, the H2O was added to each plate only a few minutes before the transfer of the compound solutions into the assay plates. Each plate was shaken thoroughly, resulting in compound dilution plates with a final of 10% DMSO. For each assay, 5 microliters of solution from each well of the compound dilution plates/10% DMSO were transferred into the assay plate. The final volume of the assay was 50 μl. All compounds were tested at 10 final assay concentrations in the range from 1×10^−05 M to 3×10^−10 M, in singlicate. The final DMSO concentration in the reaction cocktails was 1% in all cases. A radiometric protein kinase assay (33PanQinase® Activity Assay) was used for measuring the kinase activity of the protein kinase. All kinase assays were performed in 96-well FlashPlates™ from PerkinElmer (Boston, Mass., USA) in a 50 microliter reaction volume. The reaction cocktail was pipetted in four steps in the following order: 20 microliter of assay buffer (standard buffer)·5 microliter of ATP solution (in H2O)·5 microliter of test compound (in 10% DMSO)·20 microliter enzyme/substrate mix. […] For all experiments labeled as “Thiol-free”, all glutathione was exchanged from protein preparations so as to be removed from the assay and final buffer conditions contained no thiol-containing reagents. This was done so there would be no interference with the key cysteines in the proteins of interest.
For data analysis, the median value of the counts in column 1 (n=8) of each assay plate was defined as “low control”. This value reflects unspecific binding of radioactivity to the plate in the absence of a protein kinase but in the presence of the substrate. The median value of the counts in column 7 of each assay plate (n=8) was taken as the “high control”, i.e. full activity in the absence of any inhibitor. The difference between high and low control was taken as 100% activity. As part of the data evaluation the low control value from a particular plate was subtracted from the high control value as well as from all 80 “compound values” of the corresponding plate. The residual activity (in %) for each well of a particular plate was calculated by using the following formula: Res. Activity (%)=100×[(cpm of compound−low control)/(high control−low control)]
The residual activities for each concentration and the compound IC50 values were calculated using Quattro Workflow V3.1.1 (Quattro Research GmbH, Munich, Germany; www.quattro-research.com). […] The fitting method used was a least-squares fit. As a parameter for assay quality, the Z′-factor (Zhang et al., J. Biomol. Screen. 2: 67-73, 1999) for the low and high controls of each assay plate (n=8) was used. ProQinase's criterion for repetition of an assay plate is a Z′-factor below 0.4 (Iversen et al., J. Biomol. Screen. 3: 247-252, 2006).

Chain of CDK12 (Q9NYV4 whole entry): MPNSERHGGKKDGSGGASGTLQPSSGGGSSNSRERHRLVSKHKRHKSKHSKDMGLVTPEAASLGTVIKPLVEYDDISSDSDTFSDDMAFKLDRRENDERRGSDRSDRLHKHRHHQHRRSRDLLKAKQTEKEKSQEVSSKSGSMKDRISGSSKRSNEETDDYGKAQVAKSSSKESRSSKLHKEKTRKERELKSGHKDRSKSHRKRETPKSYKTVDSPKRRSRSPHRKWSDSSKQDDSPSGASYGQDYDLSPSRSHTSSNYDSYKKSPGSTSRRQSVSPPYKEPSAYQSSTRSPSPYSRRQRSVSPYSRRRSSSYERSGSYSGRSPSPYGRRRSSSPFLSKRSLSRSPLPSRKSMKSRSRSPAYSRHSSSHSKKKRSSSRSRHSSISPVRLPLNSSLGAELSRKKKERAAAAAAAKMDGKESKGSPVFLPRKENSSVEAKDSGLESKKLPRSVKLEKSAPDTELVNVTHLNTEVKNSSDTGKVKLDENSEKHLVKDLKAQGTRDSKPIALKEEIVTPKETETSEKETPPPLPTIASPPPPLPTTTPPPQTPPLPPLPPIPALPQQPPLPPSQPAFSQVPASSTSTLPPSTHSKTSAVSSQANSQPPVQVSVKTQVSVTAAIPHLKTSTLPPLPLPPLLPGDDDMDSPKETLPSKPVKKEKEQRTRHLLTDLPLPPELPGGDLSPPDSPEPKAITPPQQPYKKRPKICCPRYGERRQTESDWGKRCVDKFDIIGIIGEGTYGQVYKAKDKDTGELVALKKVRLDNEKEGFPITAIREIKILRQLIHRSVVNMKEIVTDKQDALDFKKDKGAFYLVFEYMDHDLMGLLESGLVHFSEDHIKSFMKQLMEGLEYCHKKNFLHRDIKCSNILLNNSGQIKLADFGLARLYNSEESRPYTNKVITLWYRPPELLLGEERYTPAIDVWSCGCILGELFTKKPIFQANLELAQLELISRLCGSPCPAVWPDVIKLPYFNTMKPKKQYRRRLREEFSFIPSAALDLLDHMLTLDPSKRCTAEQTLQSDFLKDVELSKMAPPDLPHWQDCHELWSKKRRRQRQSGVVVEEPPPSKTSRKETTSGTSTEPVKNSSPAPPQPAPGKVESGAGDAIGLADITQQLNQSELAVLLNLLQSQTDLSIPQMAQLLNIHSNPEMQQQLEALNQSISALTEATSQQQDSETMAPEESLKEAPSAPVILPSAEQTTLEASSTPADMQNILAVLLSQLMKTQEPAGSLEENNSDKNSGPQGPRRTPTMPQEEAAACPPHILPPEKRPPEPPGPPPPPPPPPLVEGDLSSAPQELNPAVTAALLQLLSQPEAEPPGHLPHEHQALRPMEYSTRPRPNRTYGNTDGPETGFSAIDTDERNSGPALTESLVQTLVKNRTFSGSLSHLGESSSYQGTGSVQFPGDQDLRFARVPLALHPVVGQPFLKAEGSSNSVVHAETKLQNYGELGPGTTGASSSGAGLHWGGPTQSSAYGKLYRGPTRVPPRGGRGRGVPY
Chain of CDK12 (O75909 whole entry partner): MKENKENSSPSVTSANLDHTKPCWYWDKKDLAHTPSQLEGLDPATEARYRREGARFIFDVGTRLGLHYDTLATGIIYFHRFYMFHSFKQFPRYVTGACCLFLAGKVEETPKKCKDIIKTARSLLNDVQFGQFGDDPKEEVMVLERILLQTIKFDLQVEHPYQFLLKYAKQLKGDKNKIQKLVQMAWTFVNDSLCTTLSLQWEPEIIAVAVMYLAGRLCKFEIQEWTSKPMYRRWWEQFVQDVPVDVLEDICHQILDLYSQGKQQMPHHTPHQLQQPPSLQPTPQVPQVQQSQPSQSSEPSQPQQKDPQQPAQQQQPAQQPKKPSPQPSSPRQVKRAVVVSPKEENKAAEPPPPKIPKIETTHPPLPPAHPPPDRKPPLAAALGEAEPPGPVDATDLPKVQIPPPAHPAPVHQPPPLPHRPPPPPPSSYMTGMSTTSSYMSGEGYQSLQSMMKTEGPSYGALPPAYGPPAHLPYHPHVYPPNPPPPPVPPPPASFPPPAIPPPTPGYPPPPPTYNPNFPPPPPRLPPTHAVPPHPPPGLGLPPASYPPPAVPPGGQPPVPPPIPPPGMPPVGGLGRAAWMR

Row | IC50 | Structure (SMILES)
1 | 100 to 1000 nM | C=CC(=O)Nc1ccc(C(=O)N2CC[C@@H](Nc3nccc(OC4CCCC4)n3)C2)cc1 (stereo in doubt) [Example 45, N-{4-[3-(4-Cyclopentyloxy-pyrimidin-2-ylamino)-pyrrolidine-1-carbonyl]-phenyl}-acrylamide]
2 | 1000 to 10000 nM | C=CC(=O)Nc1ccc(C(=O)N2CC[C@@H](Nc3nccc(Oc4cnn(C)c4)n3)C2)cc1 (stereo in doubt) [Example 46, N-(4-{3-[4-(1-Methyl-1H-pyrazol-4-yloxy)-pyrimidin-2-ylamino]-pyrrolidine-1-carbonyl}-phenyl)-acrylamide]
3 | 100 to 1000 nM | C=CC(=O)Nc1ccc(C(=O)N2CC[C@@H](Nc3nccc(-c4cncs4)n3)C2)cc1 (stereo in doubt) [Example 48, N-{4-[3-(4-Thiazol-5-yl-pyrimidin-2-ylamino)-pyrrolidine-1-carbonyl]-phenyl}-acrylamide]
4 | 100 to 1000 nM | CCC(=O)Nc1ccc(C(=O)N2CC[C@@H](Nc3ncc(Cl)c(OC4CC4)n3)C2)cc1 [Example 15, (R)—N-(4-(3-((5-chloro-4-cyclopropoxypyrimidin-2-yl)amino)pyrrolidine-1-carbonyl)phenyl)propionamide]
5 | 1000 to 10000 nM | CCC(=O)Nc1ccc(C(=O)N2CC[C@@H](Nc3ncc(C)c(OC4CC4)n3)C2)cc1 [Example 16, (R)—N-(4-(3-((4-cyclopropoxy-5-methylpyrimidin-2-yl)amino)pyrrolidine-1-carbonyl)phenyl)propionamide]
6 | 100 to 1000 nM | CCC(=O)Nc1ccc(C(=O)N2CC[C@@H](Nc3ncc(Cl)c(OCC(F)(F)F)n3)C2)cc1 [Example 18, (R)—N-(4-(3-((5-chloro-4-(2,2,2-trifluoroethoxy)pyrimidin-2-yl)amino)pyrrolidine-1-carbonyl)phenyl)propionamide]
7 | < 100 nM | C=CC(=O)Nc1ccc(C(=O)N2CC[C@@H](Nc3ncc(Cl)c(OC4CC4)n3)C2)cc1 [Example 21, (R)—N-(4-(3-((5-chloro-4-cyclopropoxypyrimidin-2-yl)amino)pyrrolidine-1-carbonyl)phenyl)acrylamide]
8 | 100 to 1000 nM | C=CC(=O)Nc1ccc(C(=O)N2CC[C@@H](Nc3ncc(C)c(OC4CC4)n3)C2)cc1 [Example 22, (R)—N-(4-(3-((4-cyclopropoxy-5-methylpyrimidin-2-yl)amino)pyrrolidine-1-carbonyl)phenyl)acrylamide]
9 | 100 to 1000 nM | C=CC(=O)Nc1ccc(C(=O)N2CC[C@@H](Nc3ncc(F)c(OC4CC4)n3)C2)cc1 [Example 23, (R)—N-(4-(3-((4-cyclopropoxy-5-fluoropyrimidin-2-yl)amino)pyrrolidine-1-carbonyl)phenyl)acrylamide]
10 | < 100 nM | C=CC(=O)Nc1ccc(C(=O)N2CC[C@@H](Nc3ncc(Cl)c(OCC(F)(F)F)n3)C2)cc1 [Example 24, (R)—N-(4-(3-((5-chloro-4-(2,2,2-trifluoroethoxy)pyrimidin-2-yl)amino)pyrrolidine-1-carbonyl)phenyl)acrylamide]
11 | < 100 nM | C=CC(=O)N1CCc2cc(C(=O)N3CC[C@@H](Nc4ncc(Cl)cn4)C3)ccc21 [Example 30, (R)-1-(5-(3-((5-chloropyrimidin-2-yl)amino)pyrrolidine-1-carbonyl)indolin-1-yl)prop-2-en-1-one]
12 | < 100 nM | C=CC(=O)Nc1ccc(C(=O)N2CC[C@@H](Nc3ncc(Cl)cn3)C2)cc1OC [Example 31, (R)—N-(4-(3-((5-chloropyrimidin-2-yl)amino)pyrrolidine-1-carbonyl)-2-methoxyphenyl)acrylamide]
13 | 100 to 1000 nM | C=CC(=O)Nc1ccc(C(=O)N2CC[C@@H](Nc3ncc(Cl)cn3)C2)c(C)c1 [Example 32, (R)—N-(4-(3-((5-chloropyrimidin-2-yl)amino)pyrrolidine-1-carbonyl)-3-methylphenyl)acrylamide]

Continued, molecule first:

Row | Structure (SMILES) | IC50
14 | C=CC(=O)Nc1ccc(C(=O)N2CC[C@@H](Nc3ncc(Cl)c(OC)n3)C2)cc1OC [Example 1, (R)-N-(4-(3-((5-chloro-4-methoxypyrimidin-2-yl)amino)pyrrolidine-1-carbonyl)-2-methoxyphenyl)acrylamide] | < 100 nM
15 | C=CC(=O)N1CCOc2cc(C(=O)N3CC[C@@H](Nc4ncc(Cl)c(OC)n4)C3)ccc21 [Example 2, (R)-1-(7-(3-((5-chloro-4-methoxypyrimidin-2-yl)amino)pyrrolidine-1-carbonyl)-2H-benzo[b][1,4]oxazin-4(3H)-yl)prop-2-en-1-one] | 100 to 1000 nM
16 | C=CC(=O)Nc1ccc(C(=O)N2CC[C@@H](Nc3ncc(Cl)c(OC)n3)C2)cc1-c1cnn(C)c1 [Example 4, (R)-N-(4-(3-((5-chloro-4-methoxypyrimidin-2-yl)amino)pyrrolidine-1-carbonyl)-2-(1-methyl-1H-pyrazol-4-yl)phenyl)acrylamide] | 100 to 1000 nM
17 | C=CC(=O)Nc1ccc(C(=O)N2CC[C@@H](Nc3ncc(Cl)c(OC)n3)C2)cc1Cl [Example 5, (R)-N-(2-chloro-4-(3-((5-chloro-4-methoxypyrimidin-2-yl)amino)pyrrolidine-1-carbonyl)phenyl)acrylamide] | < 100 nM
18 | C=CC(=O)Nc1ccc(C(=O)N2CC[C@@H](Nc3ncc(Cl)cn3)C2)cc1Cl [Example 6, (R)-N-(2-chloro-4-(3-((5-chloropyrimidin-2-yl)amino)pyrrolidine-1-carbonyl)phenyl)acrylamide] | < 100 nM
19 | C=CC(=O)Nc1nc(C(=O)N2CC[C@@H](Nc3ncc(Cl)c(OC)n3)C2)cs1 [Example 7, (R)-N-(4-(3-((5-chloro-4-methoxypyrimidin-2-yl)amino)pyrrolidine-1-carbonyl)thiazol-2-yl)acrylamide] | < 100 nM
20 | C=CC(=O)Nc1ncc(C(=O)N2CC[C@@H](Nc3ncc(Cl)c(OC)n3)C2)s1 [Example 8, (R)—N-(5-(3-((5-chloro-4-methoxypyrimidin-2-yl)amino)pyrrolidine-1-carbonyl)thiazol-2-yl)acrylamide] | 100 to 1000 nM
21 | C=CC(=O)Nc1ccc(C(=O)N2CC[C@@H](Nc3ncc(Cl)c(OC)n3)C2)cc1N1CCN(C)CC1 [Example 9, (R)-N-(4-(3-((5-chloro-4-methoxypyrimidin-2-yl)amino)pyrrolidine-1-carbonyl)-2-(4-methylpiperazin-1-yl)phenyl)acrylamide] | < 100 nM
22 | C=CC(=O)Nc1ccc(C(=O)N2CC[C@@H](Nc3ncc(Cl)c(OC)n3)C2)cc1N1CCOCC1 [Example 10, (R)—N-(4-(3-((5-chloro-4-methoxypyrimidin-2-yl)amino)pyrrolidine-1-carbonyl)-2-morpholinophenyl)acrylamide] | < 100 nM
23 | C=CC(=O)Nc1ccc(C(=O)N2CC[C@@H](Nc3ncc(Cl)c(OC)n3)C2)cc1N1CCCCC1 [Example 11, (R)—N-(4-(3-((5-chloro-4-methoxypyrimidin-2-yl)amino)pyrrolidine-1-carbonyl)-2-(piperidin-1-yl)phenyl)acrylamide] | < 100 nM
24 | C=CC(=O)Nc1ccc(C(=O)N2CC[C@@H](Nc3ncc(Cl)cn3)C2)cc1-c1cnn(C)c1 [Example 12, (R)—N-(4-(3-((5-chloropyrimidin-2-yl)amino)pyrrolidine-1-carbonyl)-2-(1-methyl-1H-pyrazol-4-yl)phenyl)acrylamide] | 100 to 1000 nM
25 | CCC(=O)Nc1ccc(C(=O)N2CC[C@@H](Nc3ncc(F)c(OC4CC4)n3)C2)cc1 [Example 13, (R)—N-(4-(3-((4-cyclopropoxy-5-fluoropyrimidin-2-yl)amino)pyrrolidine-1-carbonyl)phenyl)propionamide] | 1000 to 10000 nM
26 | C=CC(=O)N1CCc2cc(C(=O)N3CC[C@@H](Nc4ncc(Cl)c(OC)n4)C3)ccc21 [Example 27, (R)-1-(5-(3-((5-chloro-4-methoxypyrimidin-2-yl)amino)pyrrolidine-1-carbonyl)indolin-1-yl)prop-2-en-1-one] | < 100 nM
27 | C=CC(=O)Nc1c(C)cc(C(=O)N2CC[C@@H](Nc3ncc(Cl)cn3)C2)cc1C [Example 33, (R)—N-(4-(3-((5-chloropyrimidin-2-yl)amino)pyrrolidine-1-carbonyl)-2,6-dimethylphenyl)acrylamide] | 1000 to 10000 nM
